# Columns and labels:
# [1] = transmission and 5° regular-reflection spectra of spin-coated organic film on glass plate; assay type: physicochemical; conditions: 2 parts in 98 parts 1,1,2-trichloroethane
# Method: A solution composed of 2 parts by weight of bis(tri-n-propylsiloxy)silicon-tetra(n-dodecylthio)naphthalocyanine [illustrative compound (100)] and 98 parts by weight of 1,1,2-trichloroethane was coated on a glass plate by a spin coating method and dried at about 80° C. for about 15 minutes to form an organic film. Transmission spectrum and 5° regular-reflection spectrum of the organic film of the illustrative compound are shown in FIG. 39 and FIG. 40, respectively.
# An organic film of the same vanadyl-tetra(t-butyl) naphthalocyanine as used in Comparative Example 1 was formed on a glass plate in the same manner as in Test Example 2, and transmission spectrum (FIG. 43) and 5° regular-reflection spectrum (FIG. 44) of the organic film were measured.
# A solution composed of 1 part by weight of each of the naphthalocyanine derivatives (127), (99) and (102) exemplified and 99 parts by weight of tetrahydrofuran was coated on a glass plate by a spin coating method and dried at about 80° C. for about 15 minutes to form an organic film. Transmission spectra and 5° regular-reflection spectra of the thus formed organic films of the naphthalocyanine derivatives are summarized in FIG. 45 and FIG. 46, respectively.
# [2] = electronic spectra in various solvents; assay type: physicochemical
# Method: Bis(tri-n-propylsiloxy)silicon-tetra(ndodecylthio)n-aphthalocyanine [illustrative compound (100)] was dissolved in various solvents and its electronic spectra were measured. The electronic spectra in chloroform, tetrahydrofuran, acetone, toluene and hexane are shown in […], FIG. 35, FIG. 36, FIG. 37 and FIG. 38, respectively.
# Vanadyl-tetra(t-butyl)-naphthalocyanine synthesized according to the method described in Zhurnal Obshchei Khimii, vol. 42, p. 696 (1972) was dissolved in each of chloroform and benzene and its electronic spectra were measured. The electronic spectra in chloroform and benzene are shown in FIG. 41 and FIG. 42, respectively.
substance,measurement,setting,value
Vanadyl-tetra(t-butyl)-naphthalocyanine,light-absorbing ability in the diode laser region (780 to 830 nm),[1],did not have very high light-absorbing ability
same,reflectivity in the diode laser region (780 to 830 nm),[1],≤ 20%
same,change of absorption with concentration,[2]; electronic spectra in chloroform and benzene,"The higher the concentration, the weaker the absorption near 800 nm and the stronger the absorption at 720 to 730 nm"
same,dependence of absorption waveform on kind of solvent and concentration,[2]; electronic spectra in solution,varied depending on the kind of solvent and the conventration of solution

# — US5034309A, “Naphthalocyanine derivatives and their use in optical recording medium” (Hitachi Chemical Co., Ltd., priority 1987, dated 1991)
